Measured values reported in patent US20250179078A1, “INHIBITORS OF NLRP3” (PTC THERAPEUTICS, INC., priority 2022, published 2025).

Target: T1, NLRP3 (Homo sapiens, UniProt Q96P20)
T1 construct: host or cells: THP-1 cells differentiated with PMA
Test: IL-1β Secretion Assay (NLRP3-dependent IL1β secretion in THP1 cells)
Type: cell-based
Conditions: PMA-differentiated THP-1 cells; compounds incubated 20 h; 2.5 μM Nigericin 3 h; HTRF IL-1β readout; read-out: IC50 IL-1β Inhibition
Method in brief: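 THP-1 cells differentiated with 100 ng/mL PMA for 24 h, then given compound (7-point 3-fold series, 1:200 from DMSO) for 20 h in RPMI+5% FBS. NLRP3 activated with 2.5 μM nigericin for 3 h; secreted IL-1β measured by HTRF; IC50 from logistic fit of % inhibition.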

T1 sequence (Q96P20 whole entry): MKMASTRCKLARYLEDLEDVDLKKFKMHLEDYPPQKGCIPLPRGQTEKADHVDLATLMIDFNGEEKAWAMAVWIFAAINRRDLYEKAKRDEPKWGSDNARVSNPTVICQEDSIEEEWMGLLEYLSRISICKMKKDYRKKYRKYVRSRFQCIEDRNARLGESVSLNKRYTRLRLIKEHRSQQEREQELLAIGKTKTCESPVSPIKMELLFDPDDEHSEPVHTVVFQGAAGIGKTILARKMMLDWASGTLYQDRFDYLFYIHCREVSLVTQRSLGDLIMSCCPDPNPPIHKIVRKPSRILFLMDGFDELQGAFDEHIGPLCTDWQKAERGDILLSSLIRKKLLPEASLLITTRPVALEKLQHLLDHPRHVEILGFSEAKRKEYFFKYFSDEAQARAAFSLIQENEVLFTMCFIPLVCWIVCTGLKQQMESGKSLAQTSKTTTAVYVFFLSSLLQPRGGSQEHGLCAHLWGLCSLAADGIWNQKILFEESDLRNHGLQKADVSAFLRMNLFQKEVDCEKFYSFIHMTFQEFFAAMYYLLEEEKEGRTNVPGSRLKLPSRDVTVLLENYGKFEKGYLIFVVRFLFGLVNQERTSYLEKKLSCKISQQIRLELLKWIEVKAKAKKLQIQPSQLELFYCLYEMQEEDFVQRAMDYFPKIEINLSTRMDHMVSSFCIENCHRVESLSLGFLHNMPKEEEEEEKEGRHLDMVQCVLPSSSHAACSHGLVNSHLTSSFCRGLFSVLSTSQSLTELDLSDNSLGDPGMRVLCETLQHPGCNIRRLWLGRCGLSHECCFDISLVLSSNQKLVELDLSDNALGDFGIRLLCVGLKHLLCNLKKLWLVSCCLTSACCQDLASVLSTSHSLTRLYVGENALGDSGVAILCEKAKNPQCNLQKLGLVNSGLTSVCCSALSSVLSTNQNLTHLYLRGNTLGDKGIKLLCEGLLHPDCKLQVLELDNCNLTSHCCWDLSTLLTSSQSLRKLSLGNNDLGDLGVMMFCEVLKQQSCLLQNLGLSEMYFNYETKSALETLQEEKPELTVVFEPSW

| IC50 [nM] | SMILES |
| --- | --- |
| 100 to 300 | COc1ccc(-c2nnc(NC(C)c3cccnc3)n3cncc23)c(OC(F)(F)F)c1 (stereo not shown) [Compound 232, 1-[4-methoxy-2-(trifluoromethoxy)phenyl]-N-[1-(pyridin-3-yl)ethyl]imidazo[1,5-d][1,2,4]triazin-4-amine] |
| 1 to 10 | COc1ccc(-c2nnc(NCc3cccc(O)c3)n3cncc23)c(OC(F)(F)F)c1 [Compound 233, 3-[{{1-[4-methoxy-2-(trifluoromethoxy)phenyl]imidazo[1,5-d][1,2,4]triazin-4-yl}amino)methyl]phenol] |
| 10 to 100 | COc1ccc(-c2nnc(NCc3cc[nH]n3)n3cncc23)c(OC(F)(F)F)c1 [Compound 234, 1-[4-methoxy-2-(trifluoromethoxy)phenyl]-N-[(1H-pyrazol-3-yl)methyl]imidazo[1,5-d][1,2,4]triazin-4-amine] |
| 1 to 10 | COc1ccc(-c2nnc(N[C@H]3C[C@@](C)(O)C3)n3cncc23)c(CC(F)(F)F)c1 [Compound 236, (1s,3s)-3-({1-[4-methoxy-2-(2,2,2-trifluoroethyl)phenyl]imidazo[1,5-d][1,2,4]triazin-4-yl}amino)-1-methylcyclobutan-1-ol] |
| 1 to 10 | COc1ccc(-c2nnc(N[C@@H]3CCCC[C@H]3O)n3cncc23)c(CC(F)(F)F)c1 [Compound 237, (1R,2R)-2-({1-[4-methoxy-2-(2,2,2-trifluoroethyl)phenyl]imidazo[1,5-d][1,2,4]triazin-4-yl}amino)cyclohexan-1-ol] |
| 1 to 10 | O[C@H]1CCC[C@@H](Nc2nnc(-c3ccc(OC(F)F)cc3OC(F)(F)F)c3cncn23)C1 [Compound 245, (1S,3R)-3-({1-[4-(difluoromethoxy)-2-(trifluoromethoxy)phenyl]imidazo[1,5-d][1,2,4]triazin-4-yl}amino)cyclohexan-1-ol] |
| < 1 | O[C@@H]1CCCC[C@H]1Nc1nnc(-c2ccc(OC(F)F)cc2OC(F)(F)F)c2cncn12 [Compound 246, (1R,2R)-2-({1-[4-(difluoromethoxy)-2-(trifluoromethoxy)phenyl]imidazo[1,5-d][1,2,4]triazin-4-yl}amino)cyclohexan-1-ol] |
| 1 to 10 | CN1C[C@H](F)C[C@@H](Nc2nnc(-c3ccc(C(F)(F)F)cc3C(F)(F)F)c3cncn23)C1 [Compound 252, 1-[2,4-bis(trifluoromethyl)phenyl]-N-[(3R,5R)-5-fluoro-1-methylpiperidin-3-yl]imidazo[1,5-d][1,2,4]triazin-4-amine] |
| 1 to 10 | OC[C@H]1C[C@@H](Nc2nnc(-c3ccc(C(F)(F)F)cc3C(F)(F)F)c3cncn23)C1 [Compound 257, [(1s,3s)-3-({1-[2,4-bis(trifluoromethyl)phenyl]imidazo[1,5-d][1,2,4]triazin-4-yl}amino)cyclobutyl]methanol] |
| < 1 | CC(Nc1nnc(-c2ccc(OC(F)F)cc2OC(F)(F)F)c2cncn12)c1cccc(O)c1 (stereo not shown) [Compound 259] |
| 1 to 10 | O=C1NCCC1Nc1nnc(-c2ccc(OC(F)F)cc2OC(F)(F)F)c2cncn12 (stereo not shown) [Compound 260, 3-({1-[4-(difluoromethoxy)-2-(trifluoromethoxy)phenyl]imidazo[1,5-d][1,2,4]triazin-4-yl}amino)pyrrolidin-2-one] |
| < 1 | O[C@H]1CCC[C@@H](Nc2nnc(-c3ccc(C(F)(F)F)cc3CC(F)(F)F)c3cncn23)C1 [Compound 262, (1S,3R)-3-({1-[2-(2,2,2-trifluoroethyl)-4-(trifluoromethyl)phenyl]imidazo[1,5-d][1,2,4]triazin-4-yl}amino)cyclohexan-1-ol] |
| < 1 | C[C@]1(O)C[C@@H](Nc2nnc(-c3ccc(C(F)(F)F)cc3CC(F)(F)F)c3cncn23)C1 [Compound 263, (1s,3s)-1-methyl-3-({1-[2-(2,2,2-trifluoroethyl)-4-(trifluoromethyl)phenyl]imidazo[1,5-d][1,2,4]triazin-4-yl}amino)cyclobutan-1-ol] |
| < 1 | OC[C@H]1C[C@@H](Nc2nnc(-c3ccc(C(F)(F)F)cc3CC(F)(F)F)c3cncn23)C1 [Compound 264] |
| < 1 | O=C1NCCC1Nc1nnc(-c2ccc(C(F)(F)F)cc2CC(F)(F)F)c2cncn12 (stereo not shown) [Compound 265, 3-({1-[2-(2,2,2-trifluoroethyl)-4-(trifluoromethyl)phenyl]imidazo[1,5-d][1,2,4]triazin-4-yl}amino)pyrrolidin-2-one] |

Further lines, the molecule ahead of its results:

| SMILES | IC50 [nM] |
| --- | --- |
| COc1ccc(-c2nnc(NC3CCNC3=O)n3cncc23)c(C(F)(F)F)c1 (stereo not shown) [Compound 235, 3-({1-[4-methoxy-2-(trifluoromethyl)phenyl]imidazo[1,5-d][1,2,4]triazin-4-yl}amino)pyrrolidin-2-one] | 1 to 10 |
| COc1ccc(-c2nnc(NC3CCNC3=O)n3cncc23)c(CC(F)(F)F)c1 (stereo not shown) [Compound 238, 3-({1-[4-methoxy-2-(2,2,2-trifluoroethyl)phenyl]imidazo[1,5-d][1,2,4]triazin-4-yl}amino)pyrrolidin-2-one] | 1 to 10 |
| OCCN1CCC[C@@H](Nc2nnc(-c3ccc(C(F)(F)F)cc3OC(F)(F)F)c3cncn23)C1 [Compound 239, 2-[(3R)-3-({1-[2-(trifluoromethoxy)-4-(trifluoromethyl)phenyl]imidazo[1,5-d][1,2,4]triazin-4-yl}amino)piperidin-1-yl]ethan-1-ol] | < 1 |
| O[C@H]1CCC[C@@H](Nc2nnc(-c3ccc(C(F)(F)F)cc3OC(F)(F)F)c3cncn23)C1 [Compound 240, (1S,3R)-3-({1-[2-(trifluoromethoxy)-4-(trifluoromethyl)phenyl]imidazo[1,5-d][1,2,4]triazin-4-yl}amino)cyclohexan-1-ol] | < 1 |
| C[C@]1(O)C[C@@H](Nc2nnc(-c3ccc(C(F)(F)F)cc3OC(F)(F)F)c3cncn23)C1 [Compound 241, (1s,3s)-1-methyl-3-({1-[2-(trifluoromethoxy)-4-(trifluoromethyl)phenyl]imidazo[1,5-d][1,2,4]triazin-4-yl}amino)cyclobutan-1-ol] | < 1 |
| O[C@@H]1CCCC[C@H]1Nc1nnc(-c2ccc(C(F)(F)F)cc2OC(F)(F)F)c2cncn12 [Compound 242, (1R,2R)-2-({1-[2-(trifluoromethoxy)-4-(trifluoromethyl)phenyl]imidazo[1,5-d][1,2,4]triazin-4-yl}amino)cyclohexan-1-ol] | < 1 |
| O[C@@H]1CCCC[C@H]1Nc1nnc(-c2ccc(C(F)(F)F)cc2C(F)(F)F)c2cncn12 [Compound 243, (1R,2R)-2-({1-[2,4-bis(trifluoromethyl)phenyl]imidazo[1,5-d][1,2,4]triazin-4-yl}amino)cyclohexan-1-ol] | < 1 |
| C[C@]1(O)C[C@@H](Nc2nnc(-c3ccc(OC(F)F)cc3OC(F)(F)F)c3cncn23)C1 [Compound 244, (1s,3s)-3-({1-[4-(difluoromethoxy)-2-(trifluoromethoxy)phenyl]imidazo[1,5-d][1,2,4]triazin-4-yl}amino)-1-methylcyclobutan-1-ol] | < 1 |
| COc1ccc(-c2nnc(N[C@@H]3CCOC[C@H]3O)n3cncc23)c(CC(F)(F)F)c1 [Compound 249, (3S,4R)-4-({1-[4-methoxy-2-(2,2,2-trifluoroethyl)phenyl]imidazo[1,5-d][1,2,4]triazin-4-yl}amino)oxan-3-ol] | 1 to 10 |
| COc1ccc(-c2nnc(N[C@@H]3CCCN(C)C3)n3cncc23)c(CC(F)(F)F)c1 [Compound 250, 1-[4-methoxy-2-(2,2,2-trifluoroethyl)phenyl]-N-[(3R)-1-methylpiperidin-3-yl]imidazo[1,5-d][1,2,4]triazin-4-amine] | < 1 |
| COc1ccc(-c2nnc(NC(C)c3cccc(O)c3)n3cncc23)c(C(F)(F)F)c1 (stereo not shown) [Compound 251, 3-[1-({1-[4-methoxy-2-(trifluoromethyl)phenyl]imidazo[1,5-d][1,2,4]triazin-4-yl}amino)ethyl]phenol] | < 1 |
| OCCN1CCC[C@@H](Nc2nnc(-c3ccc(C(F)(F)F)cc3C(F)(F)F)c3cncn23)C1 [Compound 253, 2-[(3R)-3-({1-[2,4-bis(trifluoromethyl)phenyl]imidazo[1,5-d][1,2,4]triazin-4-yl}amino)piperidin-1-yl]ethan-1-ol] | 1 to 10 |
| FC(F)(F)c1ccc(-c2nnc(N[C@@H]3CCCOC3)n3cncc23)c(C(F)(F)F)c1 [Compound 254, 1-[2,4-bis(trifluoromethyl)phenyl]-N-[(3R)-oxan-3-yl]imidazo[1,5-d][1,2,4]triazin-4-amine] | 10 to 100 |
| OC[C@H]1C[C@@H](Nc2nnc(-c3ccc(C(F)(F)F)cc3OC(F)(F)F)c3cncn23)C1 [Compound 255, [(1s,3s)-3-({1-[2-(trifluoromethoxy)-4-(trifluoromethyl)phenyl]imidazo[1,5-d][1,2,4]triazin-4-yl}amino)cyclobutyl]methanol] | 1 to 10 |
| O=C1NCCC1Nc1nnc(-c2ccc(C(F)(F)F)cc2OC(F)(F)F)c2cncn12 (stereo not shown) [Compound 256, 3-({1-[2-(trifluoromethoxy)-4-(trifluoromethyl)phenyl]imidazo[1,5-d][1,2,4]triazin-4-yl}amino)pyrrolidin-2-one] | < 1 |
| OCCN1CCC[C@@H](Nc2nnc(-c3ccc(OC(F)F)cc3OC(F)(F)F)c3cncn23)C1 [Compound 258, 2-[(3R)-3-({1-[4-(difluoromethoxy)-2-(trifluoromethoxy)phenyl]imidazo[1,5-d][1,2,4]triazin-4-yl}amino)piperidin-1-yl]ethan-1-ol] | 1 to 10 |
| CCN1CCC[C@@H](Nc2nnc(-c3ccc(C(F)(F)F)cc3CC(F)(F)F)c3cncn23)C1 [Compound 261, N-[(3R)-1-ethylpiperidin-3-yl]-1-[2-(2,2,2-trifluoroethyl)-4-(trifluoromethyl)phenyl]imidazo[1,5-d][1,2,4]triazin-4-amine] | < 1 |
| CC(Nc1nnc(-c2ccc(C(F)(F)F)cc2CC(F)(F)F)c2cncn12)c1cccc(O)c1 (stereo not shown) [Compound 266] | < 1 |
| FC(F)(F)Cc1cc(C(F)(F)F)ccc1-c1nnc(Nc2cc[nH]n2)n2cncc12 [Compound 267, N-(1H-pyrazol-3-yl)-1-[2-(2,2,2-trifluoroethyl)-4-(trifluoromethyl)phenyl]imidazo[1,5-d][1,2,4]triazin-4-amine] | 1 to 10 |
